Data: PubChem BioAssay (NCI)
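Interpolation was linear, between the two tested concentrations surrounding the appropriate level; five concentrations were tested over 48 hours in 96-well plates. Here, GI50 denotes the concentration required for 50% inhibition of growth. TGI: concentration producing complete growth inhibition.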

Columns and labels:
Test in all cases: NCI tumour cell line growth inhibition, 48 h
SK-OV-3 ovarian = test system: SK-OV-3 ovarian
RXF 393 renal = test system: RXF 393 renal
UACC-257 melanoma = test system: UACC-257 melanoma
HS 578T breast = test system: HS 578T breast
ACHN renal = test system: ACHN renal
SF-268 CNS = test system: SF-268 CNS
LOX IMVI melanoma = test system: LOX IMVI melanoma
SF-539 CNS = test system: SF-539 CNS
SNB-19 CNS = test system: SNB-19 CNS
CAKI-1 renal = test system: CAKI-1 renal

| Compound | GI50 (SK-OV-3 ovarian) [µM] | TGI (SK-OV-3 ovarian) [µM] | GI50 (RXF 393 renal) [µM] | TGI (RXF 393 renal) [µM] | GI50 (UACC-257 melanoma) [µM] | TGI (UACC-257 melanoma) [µM] | GI50 (HS 578T breast) [µM] | TGI (HS 578T breast) [µM] | GI50 (ACHN renal) [µM] | TGI (ACHN renal) [µM] | GI50 (SF-268 CNS) [µM] | TGI (SF-268 CNS) [µM] | GI50 (LOX IMVI melanoma) [µM] | TGI (LOX IMVI melanoma) [µM] | GI50 (SF-539 CNS) [µM] | TGI (SF-539 CNS) [µM] | GI50 (SNB-19 CNS) [µM] | TGI (SNB-19 CNS) [µM] | GI50 (CAKI-1 renal) [µM] | TGI (CAKI-1 renal) [µM] |
| --- | --- | --- | --- | --- | --- | --- | --- | --- | --- | --- | --- | --- | --- | --- | --- | --- | --- | --- | --- | --- |
| C[C@@H]1CN(Cc2ccc(/C=C/c3n[nH]c4ccc5nc(-c6cn[nH]c6C(F)(F)F)c6c(c5c34)CCCC6)cc2)C[C@H](C)O1 | 3.64 | 17.3 | 1.85 | 5.79 | 13.3 | 30.9 | 2.05 | 10.8 | 2.57 | 13.7 | 4.21 | 19.1 | 2.33 | 10.8 | 2.97 | 14.7 | 10.2 | 22.1 | 2.29 | 11.5 |
| Nc1c(C(=O)Nc2cccc3ccccc23)sc2nc3c(cc12)CCCC3 | 1.54 | > 100 | 2.77 | > 100 | 40.5 | > 100 | 0.852 | > 100 | 4.37 | > 100 | 3.74 | > 100 | 1.75 | > 100 | 1.45 | > 100 | 4.12 | > 100 | 5.9 | > 100 |
| c1ccc(-c2n(Cc3ccc4ccccc4n3)c3ccccc3[n+]2Cc2ccc3ccccc3n2)cc1 | 0.282 | 1.18 | 0.304 | 1.54 | 0.252 | 0.933 | 0.391 | 2.28 | 1.41 | 3.01 | 0.333 | 1.35 | 0.261 | 1.06 | 0.354 | 1.4 | 0.277 | 1.31 | 1.36 | 3.37 |
| COc1cc(C2c3cc4c(cc3C3OC(=O)C2C3CO)OCO4)cc(OC)c1OC (configuration not stated) | 0.0217 | 0.0722 | < 0.0162 |  |  | > 100 | 0.043 | > 100 | 0.0344 | > 100 | 0.0395 | > 100 | < 0.01 | > 100 | < 0.0122 | 0.0668 |  | > 100 | 0.0511 | > 100 |
| Cc1cc[c-]cc1.Fc1c[c-]c(-c2ccccn2)c(F)c1.N#CCC[PH+](CCC#N)c1ccccc1.[Pt+2] | 8.37 | > 100 | 2.07 | 4.78 | 1.9 | 4.41 | 3.39 | 43.5 | 3.33 | 20.9 | 3.19 | 39.5 | 2.26 | 5.18 | 2.92 | 10.3 | 4.91 | > 100 | 2.7 | 14.1 |
| COC(=O)[C@]12CC[C@@H](C)[C@H](C)[C@@H]1C1=CC[C@@H]3[C@@]4(C)C(c5ncon5)=C[C@@](C)(CO)C4=CC[C@@]3(C)[C@]1(C)CC2 | 4.49 | 15.5 | 1.75 | 3.33 | 2.1 | 4.34 | 2.52 | 8.03 | 1.9 | 3.56 | 2.34 | 6.89 | 1.62 | 2.97 | 1.97 | 3.89 | 2.84 | 11.6 | 4.06 | 26 |
| O=S(=O)(NC(=S)Nc1ccccc1)c1ccc(N2N=C3c4ccccc4CC3C2c2ccc(Cl)cc2)cc1 (configuration not stated) | 40.7 | > 100 | 43.1 | > 100 | 29.5 | 70.5 | 30 | 68.2 | 25.8 | 60.7 | 20.7 | 51.1 | 19.5 | 39 | 24.2 | 45.7 | 21.8 | 46.4 | 26.1 | 91.4 |
| Cc1sc2nc(-c3ccccn3)c(/C=N/N=C(N)N)n2c1C | 9.14 | 20.1 | 5.56 | 16.1 | 10.7 | 27 | 12.7 | 27.7 | 7.29 | 14.8 | 8.15 | 29.8 | 4.01 | 8.26 | 28.6 | 50.8 | 7.52 | 19.5 | 9.11 | 18.3 |
| CCN(CC)c1ccc(/C=C/C(=O)c2cccc(NS(C)(=O)=O)c2)cc1 | 5.27 | > 100 | 58 | > 100 | 92.5 | > 100 | 19.3 | > 100 | 6.2 | > 100 | 18.5 | > 100 | 3.13 | > 100 | 4.94 | > 100 | 86 | > 100 | 7.97 | > 100 |
